Laboratory results: patent US12194033B2, “Glycine receptor modulators and methods of use” (University of Pittsburgh—Of the Commonwealth System of …, priority 2017, dated 2025)

Key:
CD1 mice = test: Hargreaves test under CFA-induced hyperalgesic conditions in CD1 mice; type: in vivo; conditions: for response time for paw withdrawal compared to vehicle: 0.1 mg/kg, CD1 mice, CFA-induced hyperalgesic conditions
Experimental: Under CFA-induced hyperalgesic conditions, the maximum possible effect, % MPE=(response−baseline)/(cut-off time−baseline), was measured for the application of compound 1 alone (0.05 mg/kg, blue, n=12; 0.01 mg/kg, orange, n=4), morphine alone (0.1 mg/kg, green, n=8), and compound 1 with morphine at three different dosage combinations: 0.05 mg/kg compound 1 with 0.1 mg/kg morphine (light blue, n=6), 0.01 mg/kg compound 1 with 0.1 mg/kg morphine (pink, n=10), and 0.01 mg/kg compound 1 with 0.01 mg/kg morphine (red, n=4). […] Error bars designate the standard error of the mean.
0.05 mg/kg compound 1 was tested for tolerance in CFA-treated mice (red). Under CFA-induced hyperalgesic conditions (24 hours post-application of CFA), 0.05 mg/kg compound 1 was administered to CD1 mice and responses to the Hargreaves test were measured immediately after the initial injection (application time=0) and again after a repeated dose given 1.5 hours (FIG. 7A) or 24 hours (FIG. 7B) after the effects of the first dose wore off. The black circles represent the responses of naïve mice (i.e., no administration of compound 1 or CFA), and the red circles represent the responses of mice receiving compound 1 under CFA-induced hyperalgesic conditions. […] Error bars designate the standard error of the mean (n=4).
Responses of CD1 mice to the Hargreaves test were assessed after application of 0.1 mg/kg of the indicated compounds (black) or vehicle (white) under CFA-induced hyperalgesic conditions as shown in FIGS. 8A-8H. The assessed compounds were compounds 1 (8A), 2 (8B), 3 (8C), 4 (8D), 5 (8E), 6 (8F), 7 (8G), and 8 (8H). […] Error bars designate the standard error of the mean (n≥4).
Dose response curves from the Hargreaves test in mice with a CFA-inflamed left hind paw at 1.5 and 2 hr after intraperitoneal injection of compound 1. Percent Maximum Possible Effect (% MPE) was calculated from paw withdrawal latencies.
Tolerance to compound 1 (MJPY1) and compound 3 (MJPY2) was measured by repeated dosing in the Hargreaves Test. […] Mice (n=6/group) received repeated i.p. injections of vehicle or 0.1 mg/kg compound 1 (MJPY1) or compound 3 (MJPY2) once a day for 5 days. CFA inflammation was induced on day 4, and PWL was measured 0.5 hr before and every 10 min after treatment on day 5. Data were binned to 30-min blocks (mean±SEM).

mice = test: Two-plate thermal preference test (30° C. vs 55° C.); type: in vivo; conditions: for percentage of inactive time on the hot plate (55° C.): CD1 mice, CFA, vs naïve
Experimental: Responses to the two-plate thermal preference test were assessed under naïve conditions and 1 hour after administration of 0.2 mg/kg compound 1, 0.1 mg/kg morphine, or 0.2 mg/kg compound 1+0.1 mg/kg morphine. Unrestrained mice were exposed to plates set to normal and hot temperatures (30° C. and 55° C., respectively). Temperature preference was measured by percentage time spent on the hot plate (55° C.) over the course of 4 minutes, where 50% indicates no preference between the two temperatures. […] Error bars designate the standard error of the mean (n≥5).
Unrestrained mice were exposed to plates set to normal and hot temperatures (30° C. and 55° C., respectively) for 10 minutes. […] Error bars designate the standard error of the mean (n=4).
The percent inactivity on the 55° C. plate (mean±SEM) is a measure of heat tolerance. Significance was assessed by one-way ANOVA with LSD post-hoc test.

[1] = 0.1 mg/kg i.p., 1 hour after injection
[2] = 0.1 mg/kg i.p., 48 hours after injection

| SMILES | response time for paw withdrawal compared to vehicle (CD1 mice) | also measured |
| --- | --- | --- |
| O=C1CN(C(=O)c2ccc(CNC(=O)c3ccc4c5c(cccc35)CC4)cc2)CCN1 [compound 6, N-{[4-(3-oxopiperazine-1-carbonyl)phenyl]methyl}-1,2-dihydroacenaphthylene-5-carboxamide] | increase in the response time | – |
| O=C(NCc1ccc(C(=O)N2CCCCC2)cc1)c1ccc2c3c(cccc13)CC2 [compound 2, N-{[4-(piperidine-1-carbonyl)phenyl]methyl}-1,2-dihydroacenaphthylene-5-carboxamide] | increase in the response time | – |
| NC(=O)CNC(=O)c1ccc(CNC(=O)c2ccc3c4c(cccc24)CC3)cc1 [compound 3, N-({4-[(carbamoylmethyl)-carbamoyl]phenyl}methyl)-1,2-dihydroacenaphthylene-5-carboxamide] | increase in the response time | percentage of inactive time on the hot plate (55° C.) (mice; [1]): significantly increased; percentage of inactive time on the hot plate (55° C.) (mice; [2]): significantly increased; analgesic action compared with morphine (percent inactivity on the 55° C. plate) (mice; 0.1 mg/kg i.p., male CD1 mice, 24 hr after CFA, 1 hr after treatment, same dose): better than morphine; tolerance after repeated dosing (PWL) (CD1 mice; 0.1 mg/kg i.p. once a day for 5 days, CFA on day 4): negligible tolerance |
| CCN(Cc1ccc(C(=O)N(C)C)cc1)C(=O)c1ccc2c3c(cccc13)CC2 [compound 7, N-{[4-(dimethylcarbamoyl)-phenyl]methyl}-N-ethyl-1,2-dihydroacenaphthylene-5-carboxamide] | increase in the response time | – |
| CCNC(=O)c1ccc(CNC(=O)c2ccc3c4c(cccc24)CC3)cc1 [compound 8, N-{[4-(ethylcarbamoyl)-phenyl]methyl}-1,2-dihydroacenaphthylene-5-carboxamide] | increase in the response time | – |
| NC(=O)c1ccc(CNC(=O)c2ccc3c4c(cccc24)CC3)cc1 [compound 5, N-[(4-carbamoylphenyl)-methyl]-1,2-dihydroacenaphthylene-5-carboxamide] | increase in the response time | – |
| CN1CC[C@]23c4c5ccc(O)c4O[C@H]2[C@@H](O)C=C[C@H]3[C@H]1C5 [morphine, reference compound] | – | percentage time spent on the hot plate (55° C.) compared to naïve mice (mice; normal nociception, 1 hour after 0.2 mg/kg compound 1, 0.1 mg/kg morphine, or both, 4 minutes): no significant analgesic response |
| CN(C)C(=O)c1cccc(CNC(=O)c2ccc3c4c(cccc24)CC3)c1 [compound 4, N-[[3-(dimethylcarbamoyl)-phenyl]methyl]-1,2-dihydroacenaphthylene-5-carboxamide] | increase in the response time | percentage of inactive time on the hot plate (55° C.) (mice; [1]): increase in the inactive time; percentage of inactive time on the hot plate (55° C.) (mice; [2]): no effect |
